# Results reported in patent US20070060636A1, “High enantiomeric purity dexanabinol for pharmaceutical compositions” (priority 2002, published 2007).
# Experiments:
# [1] = plasma and brain concentrations after bolus i.v. 4 mg/kg; assay type: in vivo, Sprague Dawley rats
# Protocol: (§1) The pharmacokinetics of dexanabinol of high enantiomeric purity formulated in CREMOPHOR EL®:ethanol as described in Example 4 were investigated in rats, rabbits, and monkeys following intravenous administration of single doses, and 14 and 28 days of repeated dosing. Human pharmacokinetics was studied during Phase I and Phase II clinical studies. Dexanabinol used in the pharmacokinetic studies was formulated as drug concentrates of 50 and 100 mg/ml and diluted with sterile 0.9% NaCl solution prior to intravenous (i.v.) administration to the desired final doses. Determination of dexanabinol concentrations in plasma and brain extracts was carried out using a validated Gas Chromatography-Mass Spectra (GC-MS) assay following solid phase extraction of the drug and derivatization. The limit of quantitation of the assay is 0.1 ng/ml.
# Brain pharmacokinetic parameters in animal studies were estimated by non-compartmental methods similar to those used for plasma data with the addition of an estimate of the time of maximum concentration (Tmax) which was assumed to be zero for the plasma data. Cmax is the concentration corresponding to Tmax. AUCz and AUC∞ were calculated as described above. Kp, brain-to-plasma partition coefficient, was determined by means of the area method and using the equation: Kp=AUC∞ brain/AUC∞ plasma […]
# [2] = system: intra-ocular pressure (IOP); test: IOP lowering after topical administration in normotensive rabbits; assay type: in vivo, New Zealand White albino rabbits
# Protocol: New Zealand White albino rabbits weighing 2-2.5 kg were acclimatized in our animal facility for at least a week prior to IOP measurements. Drug, saline and blank-vehicle groups (n=8-12 animals per group) were included. In most experiments, 50 μl drops were applied at 09:00 and measurements were taken 1 hour, 3, 5, and 7 hours later. Baseline IOP was individualized for each animal and time point prior to drug testing. IOP was measured by a Digilab Pneumatonometer, Model 30R. ΔIOP was calculated by subtracting the baseline IOP from IOP value measured after drug application at a corresponding time point. Maximal ΔIOP and area under the ΔIOP×hours curve (AUC) were calculated and averaged for each group. Data of IOP, AUC, blood pressure and toxicity were analyzed by the Wilcoxon-Rank test.
# [3] = single dose toxicity and pharmacokinetics, rabbit; assay type: in vivo, New Zealand White rabbits; settings: for AUC(0-inf) / Cmax: plasma, single i.v. 25 mg/kg (NOAEL); for AUC∞ Ratio to Phase I / Cmax Ratio to Phase I / Cmax Ratio to Phase II: single i.v. 25 mg/kg; for AUC∞ Ratio to Phase I / Cmax Ratio to Phase I: vs human 150 mg Phase I; for Cmax Ratio to Phase II: vs human 150 mg Phase II
# Protocol: as §1
# (§2) Pharmacokinetic parameters were estimated by a non-compartmental method using WinNonlin Professional version 3.2 (Pharsight Corp., Mountain View, Calif.). The maximum plasma concentration (Cmax), when the drug is administered by infusion, is the concentration at the end of infusion. The Cmax following intravenous bolus administration is the value estimated by the software to be the concentration at t=0. The terminal slope (X) was estimated by linear regression through the last time points and used to calculate the terminal half-life (t1/2) from the following equation: t1/2=0.693/λ The area under the curve from time of dosing through the last time point (AUCz) was calculated by the linear trapezoid method. The AUC extrapolated to infinity (AUC∞) was calculated from the following equation: AUC∞=AUCz+Cz/λ where Cz is the concentration at the last time point predicted by the linear regression. AUC∞ was normalized for dose (mg/kg) and presented as AUC∞/Dose. Mean residence time (MRT), when the drug is administered by infusion is described by the following equation: MRT=(AUMC/AUC)−(TI)/2 Mean residence time after i.v. bolus administration is described by the following equation: MRT=(AUMC/AUC) where AUMC is the area under the first moment curve and TI is the length of infusion. Plasma clearance (CL), and the apparent volume of distribution at steady state (Vss) were calculated from the following equations: CL=Dose/AUC∞ Vss=MRT×CL
# (§3) Table 6 summarizes the maximum plasma concentration (Cmax) and the area under the plasma concentration versus time curve (AUC) observed at the NOAEL doses cited above, as well as the animal to human exposure ratios (ER) for dexanabinol of high enantiomeric purity, expressed as the ratio of the pharmacokinetic (PK) parameter to that observed for a 150 mg dose in a Phase I study in human volunteers and in Phase II study in patients suffering from severe traumatic brain injury (TBI).
# [4] = single dose toxicity and pharmacokinetics, monkey; assay type: in vivo, Cynomolgus monkeys; settings: for AUC(0-inf) / Cmax: plasma, single i.v. 50 mg/kg (NOAEL); for AUC∞ Ratio to Phase I / Cmax Ratio to Phase I / Cmax Ratio to Phase II: single i.v. 50 mg/kg; for AUC∞ Ratio to Phase I / Cmax Ratio to Phase I: vs human 150 mg Phase I; for Cmax Ratio to Phase II: vs human 150 mg Phase II
# Protocol: as §1, §2, §3
# [5] = New Zealand White, iv, rabbit female
# [6] = New Zealand White, iv, rabbit male
# [7] = both sexes, New Zealand White, iv, rabbit male & female
# [8] = both sexes, cynomolgus monkey, iv, monkey male & female
# [9] = cynomolgus monkey, iv, monkey female
# [10] = cynomolgus monkey, iv, monkey male
smiles,measurement,setting,value
"CCCCCCC(C)(C)c1cc(O)c2c(c1)OC(C)(C)[C@H]1CC=C(CO)C[C@H]21 [dexanabinol, 1,1-dimethylheptyl-(3S,4S)-7-hydroxy-Δ^6-tetrahydrocannabinol]",time after injection at which brain concentrations equilibrated with plasma concentration,[1]; male and female averaged,about 30 minutes
same,differences between genders in some plasma pharmacokinetic parameters,[1]; plasma,2-3 fold
same,AUC (ΔIOP×hours),[2]; 0.02% topical,6.4±2.5 mmHg×Hour
same,maximal ΔIOP,[2]; 0.02% topical,1.8±0.7 mmHg
same,AUC (ΔIOP×hours),[2]; 0.05% topical,5.1±3.7 mmHg×Hour
same,maximal ΔIOP,[2]; 0.05% topical,1.8±0.9 mmHg
same,maximal ΔIOP,[2]; 0.1% topical,2.9±0.4 mmHg
same,AUC (ΔIOP×hours),"[2]; 0.1% topical, ±SEM",14.6±2.2 mmHg×Hour
same,AUC (ΔIOP×hours),[2]; 0.2% topical,6.9±1.7 mmHg×Hour
same,maximal ΔIOP,[2]; 0.2% topical,2.2±0.6 mmHg
same,IOP lowering effect compared to the vehicle and the saline,"[2]; all doses 0.02%, 0.05%, 0.1%, 0.2%, masked study","small, yet statistically significant"
same,IOP lowering effect over three days,"[2]; daily application for three days, n=8",sustained IOP lowering effect
same,AUC(0-inf),[3]; [5],16200 ng·h/mL
same,Cmax,[3]; [5],34.5 µg/mL
same,AUC(0-inf),[3]; [6],20100 ng·h/mL
same,Cmax,[3]; [6],33.8 µg/mL
same,NOAEL,"[3]; New Zealand White, rabbit, in vivo, iv, single dose i.v., read-out: no observed adverse effect level (NOAEL)",25 mg/kg
same,AUC(0-inf),[3]; [7],18200 ng·h/mL
same,Cmax,[3]; [7],33.4 µg/mL
same,AUC∞ Ratio to Phase I,[3]; rabbit female,5.1
same,Cmax Ratio to Phase I,[3]; rabbit female,6.9
same,Cmax Ratio to Phase II,[3]; rabbit female,17.6
same,AUC∞ Ratio to Phase I,[3]; rabbit male & female,5.7
same,Cmax Ratio to Phase I,[3]; rabbit male & female,6.7
same,Cmax Ratio to Phase II,[3]; rabbit male & female,17.0
same,AUC∞ Ratio to Phase I,[3]; rabbit male,6.3
same,Cmax Ratio to Phase I,[3]; rabbit male,6.8
same,Cmax Ratio to Phase II,[3]; rabbit male,17.2
same,AUC(0-inf),[4]; [8],127000 ng·h/mL
same,Cmax,[4]; [8],171 µg/mL
same,NOAEL,"[4]; cynomolgus monkey, in vivo, iv, single dose i.v., read-out: no observed adverse effect level (NOAEL)",50 mg/kg
same,AUC(0-inf),[4]; [9],136000 ng·h/mL
same,Cmax,[4]; [9],175 µg/mL
same,AUC(0-inf),[4]; [10],117000 ng·h/mL
same,Cmax,[4]; [10],167 µg/mL
same,AUC∞ Ratio to Phase I,[4]; monkey female,42.4
same,Cmax Ratio to Phase I,[4]; monkey female,35.0
same,Cmax Ratio to Phase II,[4]; monkey female,89.0
same,AUC∞ Ratio to Phase I,[4]; monkey male & female,39.5
same,Cmax Ratio to Phase I,[4]; monkey male & female,34.2
same,Cmax Ratio to Phase II,[4]; monkey male & female,86.9
same,AUC∞ Ratio to Phase I,[4]; monkey male,36.6
same,Cmax Ratio to Phase I,[4]; monkey male,33.4
same,Cmax Ratio to Phase II,[4]; monkey male,84.9
